# Source: the SangsterLogP compilation
row,Structure (SMILES),logP
1,Oc1ccc(-c2c(Cl)cc(Cl)cc2Cl)cc1,5.22
2,Oc1c(Cl)cc(-c2cc(Cl)c(O)c(Cl)c2)cc1Cl,5.14
3,Oc1ccc(-c2cc(Cl)ccc2Cl)cc1,4.63
4,Oc1ccc(-c2ccc(O)cc2Cl)cc1,3.37
5,Oc1ccc(-c2ccc(O)cc2)cc1,2.66
6,Oc1ccc(-c2ccc(Cl)cc2)cc1,4.04
7,Oc1ccc(-c2c(Cl)cccc2Cl)cc1,4.63
8,Oc1c(Cl)cc(-c2ccc(Cl)cc2)cc1Cl,5.22
9,Oc1ccc(-c2ccccc2)cc1,3.33
10,Oc1ccc(-c2ccccc2)c(Cl)c1,4.04
11,Oc1ccc(-c2cc(Cl)c(Cl)c(Cl)c2Cl)cc1,5.81
